Measured values from the supplement of paper PMC9402605.

Assays:
Experiment in all cases: number of L4/adult animals relative to DMSO control (development) (fraction of control); higher = more growth (less toxic); extreme values may be limits of the assay
Settings in all cases: concentration unit: uM
[1] = system: CB1072 unc-29(e1072)
Experimental: (§1)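 About 20 L1 larvae of wild-type or anthelmintic-resistant C. elegans strains were grown in 96-well plates with HB101 E. coli and a compound dilution series (0.6% DMSO). The number of L4/adult animals was counted after 72 h (day 7 for the slow-growing PR1152) and normalised to DMSO wells. Values are the mean of 3 biological replicates, each done in technical triplicate.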

[2] = system: CB3474 ben-1(e1880)
Experimental: as §1

[3] = system: CF1038 daf-16(mu86)
Experimental: as §1

[4] = system: DA1316 avr-14;avr-15;glc-1
Experimental: as §1

[5] = system: N2
Experimental: as §1

[6] = system: NM1968 slo-1(js379)
Experimental: as §1

[7] = system: PR1152 cha-1(p1152)
Experimental: as §1

[8] = system: RB2119 acr-23(ok2804)
Experimental: as §1

[9] = system: RP2674 mev-1(tr393)
Experimental: as §1

[10] = system: VC731 unc-63(ok1075)
Experimental: as §1

O=C(NCCc1ncc(C(F)(F)F)cc1Cl)c1ccccc1C(F)(F)F [fluopyram]
number of L4/adult animals
Settings | [1] | [2] | [3] | [4] | [5] | [6] | [7] | [8] | [9] | [10]
concentration: 0.09375 | 0.915 | 1.01 | 1.02 | 0.958 | 1.06 | 0.984 | 0.97 | 1.01 | 1.1 | 0.961
concentration: 0.1875 | 0.705 | 0.812 | 0.957 | 0.854 | 0.953 | 0.617 | 0.284 | 0.981 | 1.14 | 0.651
concentration: 0.375 | 0.689 | 0.674 | 0.451 | 0.176 | 0.712 | 0.0215 | 0 | 0.372 | 1.01 | 0.305
concentration: 0.75 | 0 | 0 | 0 | 0 | 0 | 0 | 0 | 0 | 0.999 | 0
concentration: 1.5 | 0 | 0 | 0 | 0 | 0 | 0 | 0 | 0 | 1.06 | 0
concentration: 3 | 0 | 0 | 0 | 0 | 0 | 0 | 0 | 0 | 1.03 | 0
concentration: 6 | 0 | 0 | 0 | 0 | 0 | 0 | 0 | 0 | 0.91 | 0
